In ChEMBL document CHEMBL4257227, “Deubiquitinase inhibitors and methods for use of the same” (2016):
Active and inactive are the calls of the source. The rule behind the calls is not given here.

What was measured:
[1] = target: T1, Ubiquitin carboxyl-terminal hydrolase 5 (Homo sapiens) (UniProt P45974); experiment: Inhibition of USP5 in Vemurafenib resistant human A375 cells
T1 sequence (whole entry): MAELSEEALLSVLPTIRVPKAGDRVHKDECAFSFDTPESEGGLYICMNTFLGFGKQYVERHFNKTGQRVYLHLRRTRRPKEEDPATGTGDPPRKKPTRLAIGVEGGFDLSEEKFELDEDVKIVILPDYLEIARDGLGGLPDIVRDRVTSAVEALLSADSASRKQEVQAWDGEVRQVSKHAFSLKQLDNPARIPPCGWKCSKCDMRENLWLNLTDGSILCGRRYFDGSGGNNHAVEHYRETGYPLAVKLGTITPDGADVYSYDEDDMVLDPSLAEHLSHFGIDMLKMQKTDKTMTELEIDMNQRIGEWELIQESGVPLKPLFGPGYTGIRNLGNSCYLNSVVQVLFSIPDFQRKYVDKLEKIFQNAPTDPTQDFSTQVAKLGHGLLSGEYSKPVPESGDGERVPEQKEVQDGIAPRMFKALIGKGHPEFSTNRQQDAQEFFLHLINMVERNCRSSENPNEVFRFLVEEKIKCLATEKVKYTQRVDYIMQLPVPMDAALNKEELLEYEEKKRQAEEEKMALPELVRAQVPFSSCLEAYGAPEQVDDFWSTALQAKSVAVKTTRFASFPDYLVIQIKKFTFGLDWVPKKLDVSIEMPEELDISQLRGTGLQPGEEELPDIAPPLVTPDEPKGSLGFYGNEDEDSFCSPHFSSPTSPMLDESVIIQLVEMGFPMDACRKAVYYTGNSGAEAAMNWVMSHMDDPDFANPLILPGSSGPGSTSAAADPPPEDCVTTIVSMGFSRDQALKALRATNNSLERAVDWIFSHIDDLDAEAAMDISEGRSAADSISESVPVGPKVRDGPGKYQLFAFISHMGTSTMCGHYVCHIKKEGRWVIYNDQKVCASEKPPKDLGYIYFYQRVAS

A375/R [2] = experiment: Induction of apoptosis in human A375R cells assessed as induction of caspase-3 activation; format: functional, cell-based
Mus musculus [3] = experiment: Inhibition of Usp9x in human MM1S cells xenografted in NOD/SCID/gamma-2 knockout mouse assessed as reduction in Mcl-1 protein levels at 15 mg/kg, ip once per day for 14 days; format: functional, organism-based
Sindbis virus = experiment: Antiviral activity against Sindbis virus infected in African green monkey Vero cells assessed as reduction in viral plaque forming units; format: functional, organism-based
[4] = target: Ubiquitin carboxyl-terminal hydrolase 9X (Homo sapiens) (UniProt Q93008); experiment: Inhibition of USP9x in Vemurafenib resistant human A375 cells
A-375 [5] = experiment: Antitumor activity against human A375 cells xenografted in NOD/SCID/gamma-2 knockout mouse assessed as inhibition of tumor growth at 7.5 to 15 mg/kg, ip once per day for 8 days followed by drug cessation and measured 10 days after drug cessation; format: functional, organism-based
A375/R [6] = experiment: Induction of apoptosis in human A375R cells assessed as induction of PARP cleavage; format: functional, cell-based
[7] = target: Ubiquitin carboxyl-terminal hydrolase 9X (Homo sapiens) (UniProt Q93008); experiment: Inhibition of Usp9x in human A375 cells; format: cell-based
Murine norovirus [8] = experiment: Antiviral activity against Murine norovirus infected in Swiss Webster bone marrow derived macrophages assessed as reduction in viral plaque forming units; format: functional, organism-based
[9] = Plasma concentration in Balb/c mouse at 10 mg/kg, iv after 7 hrs by LC-MS analysis; format: ADME, organism-based
A375/R [10] = experiment: Induction of apoptosis in human A375R cells assessed as induction of caspase-8 activation; format: functional, cell-based
A-375 [11] = experiment: Induction of p53 protein expression in Vemurafenib sensitive human A375 cells; format: functional, cell-based
NCI-H929 = experiment: Induction of apoptosis in human NCI-H929 cells at 0.3125 to 5 uM incubated for 24 hrs by annexin V staining based flow cytometry; format: functional, cell-based
Mus musculus [12] = experiment: Toxicity in human A375 cells xenografted NOD/SCID/gamma-2 knockout mouse assessed as effect on behaviour at 7.5 to 15 mg/kg, ip once per day for 8 days; format: functional, organism-based
Mus musculus [13] = experiment: Toxicity in human A375 cells xenografted NOD/SCID/gamma-2 knockout mouse assessed as effect on mobility at 7.5 to 15 mg/kg, ip once per day for 8 days; format: functional, organism-based
MM1.S [14] = experiment: Antitumor activity against human MM1S cells xenografted in NOD/SCID/gamma-2 knockout mouse assessed as inhibition of tumor volume at 5 to 20 mg/kg, ip once per day for 11 days; format: functional, organism-based
[15] = target: T1, Ubiquitin carboxyl-terminal hydrolase 5 (Homo sapiens); experiment: Inhibition of USP5 in Vemurafenib resistant human A375 cells assessed as reduction in ERK phosphorylation
MM1.S [16] = experiment: Induction of apoptosis in human MM1S cells at 0.3125 to 5 uM incubated for 24 hrs by annexin V staining based flow cytometry; format: functional, cell-based
[17] = Plasma concentration in Balb/c mouse at 30 mg/kg, po after 4 hrs by LC-MS analysis; format: ADME, organism-based
MM1.S [18] = experiment: Antitumor activity against human MM1S cells xenografted in NOD/SCID/gamma-2 knockout mouse assessed as inhibition of tumor growth at 2.5 to 10 mg/kg, ip once per day for 14 days; format: functional, organism-based
[19] = Plasma concentration in Balb/c mouse at 10 mg/kg, iv after 0.5 hrs by LC-MS analysis; format: ADME, organism-based
Mus musculus [20] = experiment: Toxicity in human A375 cells xenografted NOD/SCID/gamma-2 knockout mouse assessed effect on body weight at 7.5 mg/kg, ip once per day for 8 days; format: functional, organism-based
Murine norovirus [21] = experiment: Antiviral activity against Murine norovirus infected in mouse RAW264.7 cells assessed as reduction in viral plaque forming units; format: functional, organism-based
[22] = Plasma concentration in Balb/c mouse at 10 mg/kg, iv after 4 hrs by LC-MS analysis; format: ADME, organism-based
[23] = target: T1, Ubiquitin carboxyl-terminal hydrolase 5 (Homo sapiens); experiment: Inhibition of USP5 in Vemurafenib sensitive human A375 cells
[24] = Plasma concentration in Balb/c mouse at 30 mg/kg, po after 2 hrs by LC-MS analysis; format: ADME, organism-based
[25] = target: T1, Ubiquitin carboxyl-terminal hydrolase 5 (Homo sapiens); experiment: Inhibition of USP5 in Vemurafenib […] human A375R cells assessed as reduction in STAT3 phosphorylation
[26] = target: Ubiquitin carboxyl-terminal hydrolase 9X (Homo sapiens) (UniProt Q93008); experiment: Inhibition of USP9x in Vemurafenib sensitive human A375 cells
[27] = system: CD34-positive blood stem/progenitor cell; experiment: Induction of apoptosis in human CD34+ cells at 0.3125 to 5 uM incubated for 24 hrs by annexin V staining based flow cytometry; conditions: cd34-positive (myeloid/lymphoid) cell
[28] = target: Ubiquitin carboxyl-terminal hydrolase 9X (Homo sapiens) (UniProt Q93008); experiment: Inhibition of Usp9x in human MM1.S cells assessed as reduction in caspase activity by measuring cleaved PARP protein levels at 5 uM incubated for 5 to 240 mins by SDS-PAGE and immunoblotting; format: cell-based
Mus musculus [29] = experiment: Toxicity in human A375 cells xenografted NOD/SCID/gamma-2 knockout mouse assessed as induction of body weight loss at 7.5 to 15 mg/kg, ip once per day for 8 days; format: functional, organism-based
A-375 [30] = experiment: Induction of p53 protein expression in Vemurafenib resistant human A375 cells; format: functional, cell-based
[31] = target: Ubiquitin carboxyl-terminal hydrolase 9X (Homo sapiens) (UniProt Q93008); experiment: Inhibition of USP9x in Vemurafenib sensitive human A375 cells assessed as STAT3 phosphorylation

Chain of Ubiquitin carboxyl-terminal hydrolase 9X (Homo sapiens) (Q93008 whole entry): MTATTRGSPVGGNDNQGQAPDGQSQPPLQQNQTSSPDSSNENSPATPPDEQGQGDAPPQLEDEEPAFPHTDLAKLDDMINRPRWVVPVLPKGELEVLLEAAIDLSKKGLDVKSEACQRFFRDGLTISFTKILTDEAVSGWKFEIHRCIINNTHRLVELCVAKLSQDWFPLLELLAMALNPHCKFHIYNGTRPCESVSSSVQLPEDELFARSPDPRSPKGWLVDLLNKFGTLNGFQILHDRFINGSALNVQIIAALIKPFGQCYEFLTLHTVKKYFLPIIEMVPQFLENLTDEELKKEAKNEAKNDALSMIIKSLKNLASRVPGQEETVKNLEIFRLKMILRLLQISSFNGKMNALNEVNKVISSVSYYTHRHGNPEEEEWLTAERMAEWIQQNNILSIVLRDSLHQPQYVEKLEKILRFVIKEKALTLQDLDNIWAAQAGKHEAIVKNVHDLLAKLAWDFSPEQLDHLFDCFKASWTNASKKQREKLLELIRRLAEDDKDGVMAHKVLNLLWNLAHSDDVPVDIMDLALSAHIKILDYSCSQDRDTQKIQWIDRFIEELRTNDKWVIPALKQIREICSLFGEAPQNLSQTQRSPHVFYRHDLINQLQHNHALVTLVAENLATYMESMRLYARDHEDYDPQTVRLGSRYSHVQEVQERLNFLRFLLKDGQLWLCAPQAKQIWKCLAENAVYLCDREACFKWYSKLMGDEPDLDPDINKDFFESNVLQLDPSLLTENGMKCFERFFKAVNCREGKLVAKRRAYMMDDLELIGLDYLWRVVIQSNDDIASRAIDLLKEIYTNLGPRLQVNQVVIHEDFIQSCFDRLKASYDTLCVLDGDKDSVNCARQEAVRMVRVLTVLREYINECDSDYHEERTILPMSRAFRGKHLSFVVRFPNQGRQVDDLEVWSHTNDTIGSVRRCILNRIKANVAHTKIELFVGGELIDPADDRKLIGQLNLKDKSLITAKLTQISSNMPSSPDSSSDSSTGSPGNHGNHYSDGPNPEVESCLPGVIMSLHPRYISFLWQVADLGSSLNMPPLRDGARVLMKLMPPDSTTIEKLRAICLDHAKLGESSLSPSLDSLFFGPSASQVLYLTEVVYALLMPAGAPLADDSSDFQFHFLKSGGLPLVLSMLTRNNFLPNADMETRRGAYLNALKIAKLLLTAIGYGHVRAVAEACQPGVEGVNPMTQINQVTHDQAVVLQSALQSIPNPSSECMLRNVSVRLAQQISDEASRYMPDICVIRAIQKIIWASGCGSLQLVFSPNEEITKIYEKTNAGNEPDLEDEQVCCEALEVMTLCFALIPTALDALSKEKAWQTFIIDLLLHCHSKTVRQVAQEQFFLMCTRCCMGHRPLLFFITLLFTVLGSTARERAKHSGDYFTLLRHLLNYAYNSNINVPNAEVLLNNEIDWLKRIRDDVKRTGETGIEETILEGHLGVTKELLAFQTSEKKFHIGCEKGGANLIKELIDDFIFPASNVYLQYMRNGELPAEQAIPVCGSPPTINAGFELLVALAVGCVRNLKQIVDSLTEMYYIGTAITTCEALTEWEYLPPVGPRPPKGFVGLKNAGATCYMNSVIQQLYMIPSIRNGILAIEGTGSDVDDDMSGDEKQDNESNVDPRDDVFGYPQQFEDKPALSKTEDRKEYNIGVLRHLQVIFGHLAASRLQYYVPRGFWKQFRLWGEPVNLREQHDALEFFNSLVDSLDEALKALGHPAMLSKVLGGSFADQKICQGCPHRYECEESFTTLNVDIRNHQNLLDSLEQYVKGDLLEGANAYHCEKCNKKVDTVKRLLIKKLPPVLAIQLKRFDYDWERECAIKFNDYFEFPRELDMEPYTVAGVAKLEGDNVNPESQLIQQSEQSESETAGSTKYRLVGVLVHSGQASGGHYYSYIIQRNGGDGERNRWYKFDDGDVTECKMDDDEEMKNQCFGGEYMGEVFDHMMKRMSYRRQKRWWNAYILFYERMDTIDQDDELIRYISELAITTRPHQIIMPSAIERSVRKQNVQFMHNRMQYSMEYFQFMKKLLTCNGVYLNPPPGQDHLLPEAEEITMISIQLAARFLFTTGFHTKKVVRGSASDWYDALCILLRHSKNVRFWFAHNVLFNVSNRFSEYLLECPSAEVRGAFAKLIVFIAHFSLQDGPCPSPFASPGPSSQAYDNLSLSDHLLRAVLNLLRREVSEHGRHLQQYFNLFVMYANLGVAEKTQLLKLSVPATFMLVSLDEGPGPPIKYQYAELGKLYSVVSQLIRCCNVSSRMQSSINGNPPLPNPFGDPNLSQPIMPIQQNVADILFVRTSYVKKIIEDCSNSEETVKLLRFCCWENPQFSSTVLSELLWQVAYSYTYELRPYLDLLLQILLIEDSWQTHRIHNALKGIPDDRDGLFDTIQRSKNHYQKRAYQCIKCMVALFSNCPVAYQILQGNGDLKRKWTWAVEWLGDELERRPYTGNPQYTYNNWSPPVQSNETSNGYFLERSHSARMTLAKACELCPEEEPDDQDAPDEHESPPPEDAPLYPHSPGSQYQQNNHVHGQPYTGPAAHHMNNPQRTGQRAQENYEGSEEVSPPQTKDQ

inhibition [1]: Active | inhibition [4]: Active | inhibition [7]: Active | concentration at 7 h [9]: 38.6 to 208 ng/mL | inhibition [15]: Active | concentration at 4 h [17]: 44.5 to 57.1 ng/mL | concentration at 0.5 h [19]: 1220 to 1880 ng/mL | concentration at 4 h [22]: 126 to 289 ng/mL | inhibition [23]: Active | concentration at 2 h [24]: 35.8 to 59 ng/mL | inhibition [25]: Active | inhibition [26]: Active | inhibition [28]: Active | inhibition [31]: Active
SMILES: CCCC(NC(=O)/C(C#N)=C/c1nc(Cl)ccc1Cl)c1ccc(OCCN2CCOCC2)cc1 (stereo not drawn)
Activity (A375/R [2]): Active | inhibition (Mus musculus [3]): Active | Activity (Sindbis virus): Active | TGI (A-375 [5]): inactive | Activity (A375/R [6]): Active | Activity (Murine norovirus [8]): Active | Activity (A375/R [10]): Active | Activity (A-375 [11]): inactive | Activity (NCI-H929): Active | Activity (Mus musculus [12]): Not toxic | Activity (Mus musculus [13]): Not toxic | Activity (MM1.S [14]): Active | Activity (MM1.S [16]): Active | TGI (MM1.S [18]): Active | Activity (Mus musculus [20]): Not toxic | Activity (Murine norovirus [21]): Active | Activity [27]: Non-Toxic | Activity (Mus musculus [29]): Not toxic | Activity (A-375 [30]): inactive
